According to ChEMBL document CHEMBL3817831, “Ionophoric polyphenols selectively bind Cu(2+), display potent antioxidant and anti-amyloidogenic properties, and are non-toxic toward Tetrahymena thermophila” (Bioorg Med Chem, 2016):
Calls of active or inactive are those of the source. The rule behind the calls is not given here.

Legend:
[1] = Binding affinity to Zn2+ using ZnCl2 at 20 uM after 5 mins by spectrophotometry
[2] = Binding affinity to Fe2+ using FeCl2 at 20 uM after 5 mins by spectrophotometry
[3] = Binding affinity to Ca2+ using CaCl2 at 20 uM after 5 mins by spectrophotometry
[4] = Binding affinity to Mn2+ using MnCl2 at 20 uM after 5 mins by spectrophotometry
[5] = Binding affinity to Mg2+ using MgSO4 at 20 uM after 5 mins by spectrophotometry
[6] = Binding affinity to Cu2+ using CuCl2 at 20 uM after 5 mins by spectrophotometric titration assay
[7] = target: Amyloid-beta precursor protein (Homo sapiens) (UniProt P05067); test: Binding affinity to amyloid beta (1 to 40) (unknown origin) by tyrosine fluorimetric titration assay
[8] = Inhibition of Cu2+-amyloid beta (1 to 40) catalyzed generation of hydroxyl radical assessed as 7-hrdroxy-CCA formation at 2 equiv preincubated for 1 hr followed by CCA addition measured over 60 mins by fluorescence assay
[9] = Inhibition of Cu2+-amyloid beta (1 to 40) catalyzed generation of hydroxyl radical assessed as rate of radical formation per min at 2 equiv preincubated for 1 hr followed by CCA addition measured over 60 mins by CCA based fluorescence assay (reference value: 13 +/- 0.2 a.u.)
[10] = Antioxidant activity assessed as DPPH free radical scavenging activity after 30 mins by spectrophotometry; assay type: physicochemical
[11] = Ratio of resveratrol IC50 to compound IC50 for DPPH free radical scavenging activity
[12] = Antioxidant activity assessed as AAPH radical scavenging activity preincubated for 30 mins followed by AAPH addition measured after 60 mins by ORAC assay; assay type: physicochemical
[13] = Ratio of resveratrol IC50 to compound IC50 for AAPH radical scavenging activity
[14] = Inhibition of Cu2+-induced amyloid beta (1 to 40) aggregation at 100 uM preincubated for 5 mins followed by amyloid beta (1 to 40) addition measured after 18 days at pH 6.60 by thioflavin-T fluorescence assay
[15] = Inhibition of Cu2+-induced amyloid beta (1 to 40) fibril aggregation assessed as remaining fibril aggregates at 100 uM preincubated for 5 mins followed by amyloid beta (1 to 40) addition measured after 3 days at pH 6.60 by thioflavin-T fluorescence assay
[16] = Inhibition of Cu2+-induced amyloid beta (1 to 40) fibril aggregation assessed as remaining fibril aggregates at 100 uM preincubated for 5 mins followed by amyloid beta (1 to 40) addition measured after 7 days at pH 6.60 by thioflavin-T fluorescence assay
[17] = target: Amyloid-beta precursor protein (Homo sapiens) (UniProt P05067); test: Inhibition of self-induced amyloid beta (1 to 40) (unknown origin) fibril aggregation assessed as remaining fibril aggregates at 100 uM after 3 days at pH 6.60 by thioflavin-T fluorescence assay
[18] = target: Amyloid-beta precursor protein (Homo sapiens) (UniProt P05067); test: Inhibition of self-induced amyloid beta (1 to 40) (unknown origin) fibril aggregation assessed as remaining fibril aggregates at 100 uM after 7 days at pH 6.60 by thioflavin-T fluorescence assay
[19] = Inhibition of preformed Cu2+-induced amyloid beta (1 to 40) fibril aggregation assessed as remaining fibril aggregates at 100 uM after 4 days at pH 6.60 by thioflavin-T fluorescence assay
[20] = Induction of preformed Cu2+-induced amyloid beta (1 to 40) fibril aggregation at 100 uM after 4 to 12 days by turbidity assay relative to control
[21] = Inhibition of preformed Cu2+-induced amyloid beta (1 to 40) fibril aggregation assessed as remaining fibril aggregates at 100 uM after 12 days at pH 6.60 by thioflavin-T fluorescence assay
[22] = target: Amyloid-beta precursor protein (Homo sapiens) (UniProt P05067); test: Inhibition of preformed self-induced amyloid beta (1 to 40) (unknown origin) fibril aggregation assessed as remaining fibril aggregates at 100 uM after 4 days at pH 6.60 by thioflavin-T fluorescence assay
[23] = target: Amyloid-beta precursor protein (Homo sapiens) (UniProt P05067); test: Inhibition of preformed self-induced amyloid beta (1 to 40) (unknown origin) fibril aggregation assessed as remaining fibril aggregates at 100 uM after 12 days at pH 6.60 by thioflavin-T fluorescence assay
[24] = Induction of Cu2+-induced amyloid beta (1 to 40) fibril aggregation at 100 uM preincubated for 5 mins followed by amyloid beta (1 to 40) addition measured after 3 to 7 days by turbidity assay
[25] = Toxicity in Tetrahymena thermophila assessed as reduction in cell viability after 48 hrs by MTT assay; assay type: organism-based; settings: Tetrahymena thermophila cells, read-out: LD50
[26] = Binding affinity to Cu2+ using CuCl2 after 5 mins by spectrophotometry
[27] = Ratio of ascorbic acid IC50 to compound IC50 for DPPH free radical scavenging activity
[28] = Inhibition of Cu2+-induced amyloid beta (1 to 40) fibril aggregation at 100 uM preincubated for 5 mins followed by amyloid beta (1 to 40) addition measured after 18 days by turbidity assay
[29] = target: Amyloid-beta precursor protein (Homo sapiens) (UniProt P05067); test: Induction of self-induced amyloid beta (1 to 40) (unknown origin) fibril aggregation at 100 uM after 3 days by turbidity assay
[30] = target: Amyloid-beta precursor protein (Homo sapiens) (UniProt P05067); test: Inhibition of self-induced amyloid beta (1 to 40) (unknown origin) fibril aggregation at 100 uM after 7 to 18 days by turbidity assay
[31] = target: Amyloid-beta precursor protein (Homo sapiens) (UniProt P05067); test: Induction of preformed self-induced amyloid beta (1 to 40) (unknown origin) fibril aggregation at 100 uM after 4 days by turbidity assay
[32] = target: Amyloid-beta precursor protein (Homo sapiens) (UniProt P05067); test: Inhibition of preformed self-induced amyloid beta (1 to 40) (unknown origin) fibril aggregation at 100 uM after 12 days by turbidity assay relative to control
[33] = Inhibition of preformed Cu2+-induced amyloid beta (1 to 40) fibril aggregation at 100 uM after 4 to 12 days by turbidity assay relative to control
[34] = Binding affinity to Cu2+ using CuCl2 at 10 uM after 5 mins by spectrophotometric titration assay
[35] = Inhibition of preformed Cu2+-induced amyloid beta (1 to 40) fibril aggregation at 100 uM after 12 days by turbidity assay relative to control
[36] = Inhibition of preformed Cu2+-induced amyloid beta (1 to 40) fibril aggregation at 100 uM after 12 days by turbidity assay relative to total turbidity of amyloid beta (1 to 40) aggregates
[37] = Binding affinity to Cu2+ assessed as compound-metal adduct formation

Chain of Amyloid-beta precursor protein (Homo sapiens) (P05067 whole entry): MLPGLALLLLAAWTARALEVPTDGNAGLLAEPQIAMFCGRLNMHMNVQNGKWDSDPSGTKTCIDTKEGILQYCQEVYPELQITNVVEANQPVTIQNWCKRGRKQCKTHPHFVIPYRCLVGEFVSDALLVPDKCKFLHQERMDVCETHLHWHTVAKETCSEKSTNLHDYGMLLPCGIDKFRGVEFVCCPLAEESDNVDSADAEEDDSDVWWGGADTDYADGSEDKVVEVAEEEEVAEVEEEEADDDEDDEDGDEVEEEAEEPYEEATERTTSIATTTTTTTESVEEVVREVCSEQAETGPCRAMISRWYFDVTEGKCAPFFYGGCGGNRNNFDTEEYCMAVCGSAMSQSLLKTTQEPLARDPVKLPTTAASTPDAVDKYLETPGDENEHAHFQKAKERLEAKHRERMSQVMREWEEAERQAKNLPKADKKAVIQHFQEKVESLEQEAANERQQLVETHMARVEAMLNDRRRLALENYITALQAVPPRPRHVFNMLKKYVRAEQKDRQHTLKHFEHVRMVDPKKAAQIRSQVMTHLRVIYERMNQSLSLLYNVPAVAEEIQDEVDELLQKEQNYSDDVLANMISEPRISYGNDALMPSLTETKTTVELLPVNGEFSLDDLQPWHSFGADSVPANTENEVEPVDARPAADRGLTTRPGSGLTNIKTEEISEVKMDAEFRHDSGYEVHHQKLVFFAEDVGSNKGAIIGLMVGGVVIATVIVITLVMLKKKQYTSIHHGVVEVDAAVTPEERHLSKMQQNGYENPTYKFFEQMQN

| SMILES | Activity [1] | Activity [2] | Activity [3] | Activity [4] | Activity [5] | Ka [7] [×10⁵ /M] | inhibition [8] [%] | Activity [9] [a.u.] | IC50 [10] [µM] | Ratio IC50 [11] | IC50 [12] [µM] | Ratio IC50 [13] | Activity [15] [%] | Activity [16] [%] | Activity [17] [%] | Activity [18] [%] | Activity [22] [%] | Activity [23] [%] | LC50 at 48 h [25] [µM] | logKa [26] | also measured |
| --- | --- | --- | --- | --- | --- | --- | --- | --- | --- | --- | --- | --- | --- | --- | --- | --- | --- | --- | --- | --- | --- |
| Oc1ccc(CNc2ccccc2O)cc1O | inactive | inactive | inactive | inactive | inactive | 3.55 | 59.9 | 4 | 3.05 | 5.8 | 0.61 | 2.8 | 19.5 | 12.1 | 9.17 | 7.49 | 12.8 | 9.28 | 354 | 12.6 | Activity [6]: Active; inhibition [14]: Active; Activity [19]: 76.5%; Activity [20]: Active; Activity [21]: 69.7%; Activity [24]: 47%; Ratio IC50 [27]: 2; inhibition [28]: Active; Activity [29]: Active; inhibition [30]: Active; Activity [31]: Active; inhibition [32]: Active |
| O=C1O[C@H]([C@@H](O)CO)C(O)=C1O [ASCORBIC ACID] |  |  |  |  |  |  |  |  | 12.8 | 1.4 | 62.2 | 0.02 |  |  |  |  |  |  |  |  |  |
| Oc1ccc(CNc2ccccc2O)cc1 | inactive | inactive | inactive | inactive | inactive | 3.27 | 47.3 | 6.8 | 6.27 | 2.8 | 1.38 | 1.2 | 21.8 | 11 | 4.34 | 3.7 | 8.37 | 10.1 | 211 | 12.8 | Activity [6]: Active; inhibition [14]: Active; Activity [19]: 152%; Activity [21]: 106%; Activity [24]: 47%; Ratio IC50 [27]: 2; inhibition [28]: Active; Activity [29]: Active; inhibition [30]: Active; inhibition [33]: Active; Activity [31]: Active; inhibition [32]: Active |
| Oc1ccc(/C=C/c2cc(O)cc(O)c2)cc1 [RESVERATROL] | inactive | Active | inactive | inactive | inactive | 1.65 | 9 | 11.2 | 17.8 |  | 1.7 |  | 25.9 | 16.1 | 7.48 | 4.25 | 100 | 24.1 | 274 | 6.7 | Activity [19]: 239%; Activity [21]: 144%; Activity [29]: Active; inhibition [33]: inactive |
| Oc1ccc(/N=C/c2c(O)ccc3ccccc23)c(O)c1 | inactive | inactive | inactive | inactive | inactive | 2.46 | 98.5 | 0.03 | 13.5 | 1.3 | 3.15 | 0.5 | 7.85 | 10.9 | 6.51 | 6.21 | 14.4 | 11 | 265 | 14.3 | Activity [34]: Active; inhibition [14]: Active; Activity [19]: 46%; Activity [20]: Active; Activity [21]: 47.3%; Activity [24]: 47%; inhibition [28]: Active; Activity [29]: Active; inhibition [30]: Active; Activity [31]: Active; inhibition [32]: Active |
| Oc1ccccc1/N=C/c1c(O)ccc2ccccc12 | inactive | inactive | inactive | inactive | inactive | 1.91 | 100 | 0 | 38.5 | 0.5 | 11.5 | 0.1 | 41.5 | 33.7 | 22.6 | 13.9 | 36.2 | 26.6 | 158 | 14 | Activity [34]: Active; inhibition [14]: Active; Activity [19]: 66.4%; Activity [21]: 42.8%; inhibition [28]: Active; Activity [29]: Active; inhibition [30]: Active; inhibition [35]: < 57%; inhibition [36]: < 22%; Activity [31]: Active; inhibition [32]: 25% |
| Oc1cccc(CNc2ccccc2O)c1 | inactive | inactive | inactive | inactive | inactive | 1.55 | 51.1 | 5.4 | 5.87 | 3 | 1.24 | 1.4 | 45 | 17.2 | 8.2 | 6.65 | 11.7 | 20.3 | 180 | 13.1 | Activity [6]: Active; inhibition [14]: Active; Activity [19]: 144%; Activity [21]: 117%; Activity [24]: 47%; Ratio IC50 [27]: 2; inhibition [28]: Active; Activity [29]: Active; inhibition [30]: Active; inhibition [33]: Active; Activity [31]: Active; inhibition [32]: 46% |
| Oc1c(I)cc(Cl)c2cccnc12 [CLIOQUINOL] | Active | Active | Active | Active | Active | 3.69 | 87.7 | 1.2 | 40.6 | 0.4 | 9.72 | 0.2 | 250 | 196 | 120 | 112 | 170 | 310 | 240 | 15.6 | Activity [20]: Active; logKa [37]: 10 |
